This note sets out measurements from US11319303B2 (WIGEN BIOMEDICINE TECHNOLOGY (SHANGHAI) CO., LTD., priority 2017, dated 2022).

Where a name gives a salt, the structure may show the parent alone. Where only a bound is given, the exact number is not on record here.

The target in one assay is LC3B (Homo sapiens, UniProt Q9GZQ8). As to the kind of experiment: Fluorescence Polarization (FP) Assay: displacement of FITC-labeled peptide from GST-LC3B. Type of assay: binding.
Settings: not given
As for the experimental part:
The compounds of the present invention for regulating the autophagy-related protein LC3B were tested by Fluorescence Polarization (FP) Assay.
Fluorescence Polarization (FP) Assay Test
With `O=C1CC(c2ccccc2)CC(=O)C1=CNC1CCSC1=O` (stereo not drawn) [Compound 137, 2-(((2-oxotetrahydro-thiophen-3-yl)amino)methylene)-5-phenylcyclohexane-1,3-dione], the IC50 – broadly, the concentration at which inhibition is half-maximal – lay within 3 to 15 µM.

The assay is the same for the next values; noted with them: Fluorescence Polarization assay; GST-LC3B 180 nM, FITC-labeled peptide 18 nM, 25° C.; read-out: IC50.
Take `O=C1CC(C(=O)N2CCOCC2)CC(=O)C1=CNCCN1CCN(CCO)CC1` (stereo not drawn) [Compound 106, 2-(((2-(4-(2-hydroxyethyl)piperazin-1-yl)ethyl)amino)methylene)-5-(morpholine-4-carbonyl)cyclohexane-1,3-dione]: the IC50 was 100 to 1000 µM.

On to `O=C1Nc2ccccc2C(=O)/C1=C/NCCN1CCN(CCO)CC1` [Compound 107, 3-(((2-(4-(2-hydroxyethyl)piperazin-1-yl)ethyl)amino)methylene)quinoline-2,4(1H,3H)-dione], for which the IC50 is 15 to 100 µM.

With `CC(NCCN1CCN(CCO)CC1)=C1C(=O)CC(c2ccccc2)CC1=O` (stereo not drawn) [Compound 108, 2-(1-((2-(4-(2-hydroxyethyl)piperazin-1-yl)ethyl)amino)ethylidene)-5-phenylcyclohexane-1,3-dione], the IC50 was in the range of 100 to 1000 µM.

In the case of `O=C1CC(c2ccccc2)CC(=O)C1=C(NCCN1CCN(CCO)CC1)c1ccccc1` (stereo not drawn) [Compound 110, 2-(((2-(4-(2-hydroxyethyl)piperazin-1-yl)ethyl)amino)(phenyl)methylene)-5-phenylcyclohexane-1,3-dione], the IC50 lay in the range of 100 to 1000 µM.

In the case of `CC(=O)OCC(=O)C1=C(O)CC(c2ccccc2)CC1=O` (stereo not drawn) [Compound 111, 2-(5-hydroxy-3-oxo-1,2,3,6-tetrahydro-[1,1′ -biphenyl]-4-yl)-2-oxoethyl acetate], the IC50 lay within 100 to 1000 µM.

Consider `O=C(CO)C1C(=O)CC(c2ccccc2)CC1=O` (stereo not drawn) [Compound 112, 2-(hydroacetyl)-5-pheyl-cyclohexane-1,3-dione], for which the IC50 was 15 to 100 µM.

Consider `O=C1CC2c3ccccc3CCC2C(=O)/C1=C\NCCN1CCN(CCO)CC1` (stereo not drawn) [Compound 113, 2-(((2-(4-(2-hydroxyethyl)piperazin-1-yl)ethyl)amino)methylene)-4a,9,10,10a-tetrahydrophenanthrene-1,3(2H,4H)-dione], for which the IC50 was 100 to 1000 µM.

As to `O=C1CC([C@H]2O[C@@H](n3cnc4c(N5CCOCC5)ncnc43)[C@H](O)[C@@H]2O)CC(=O)C1=CNCCN1CCN(CCO)CC1` (stereo partly drawn) [Compound 114, 5-((2R, 3S, 4R, 5R)-3,4-dihydroxy-5-(6-morpholino-9H-purin-9-yl)tetrahydrofuran-2-yl)-2-(((2-(4-(2-hydroxyethyl)piperazin-1-yl)ethyl)amino)methylene)cyclohexane-1,3-dione], the IC50 was in the range of 100 to 1000 µM.

As for `O=C1CC(Cc2ccccc2)C(=O)/C1=C/NCCN1CCN(CCO)CC1` (stereo not drawn) [Compound 115, 4-benzyl-2-(((2-(4-(2-hydroxyethyl)piperazin-1-yl)ethyl)amino)-methylene)cyclopentane-1,3-dione], the IC50 lay within 3 to 15 µM.

Consider `CC1C(=O)C(=CNCCN2CCN(CCO)CC2)C(=O)CC1c1ccccc1` (stereo not drawn) [Compound 116, 2-(((2-(4-(2-hydroxyethyl)piperazin-1-yl)ethyl)amino)methylene)-4-methyl-5-phenylcyclohexane-1,3-dione], for which the IC50 was below 3 µM.

Turning to `CN(C)CCNC=C1C(=O)CC(c2ccccc2)CC1=O` (stereo not drawn) [Compound 119, 2-(((2-(dimethylamino)ethyl)amino)methylene)-5-phenylcyclo-hexane-1,3-dione], the IC50 is below 3 µM.

Turning to `CCN(CC)CCNC=C1C(=O)CC(c2ccccc2)CC1=O` (stereo not drawn) [Compound 120, 2-(((2-(diethylamino)ethyl)amino)methylene)-5-phenylcyclo-hexane-1,3-dione], the IC50 was below 3 µM.

As to `C[C@H](NC=C1C(=O)CC(c2ccccc2)CC1=O)C(=O)O` (stereo partly drawn) [Compound 121, ((2,6-dioxo-4-phenylcyclo-hexylidene)methyl)-L-alanine], the IC50 was in the range of 15 to 100 µM.

On to `C[C@H](NC=C1C(=O)CC(c2ccccc2)CC1=O)C(=O)OCc1ccccc1` (stereo partly drawn) [Compound 122, benzyl ((2,6-dioxo-4-phenylcyclo-hexylidene)methyl)-L-alaninate], for which the IC50 fell in the range of 100 to 1000 µM.

For `O=C1CC(c2ccccc2)CC(=O)C1=CN[C@@H](Cc1ccccc1)C(=O)O` (stereo partly drawn) [Compound 123, ((2,6-dioxo-4-phenylcyclo-hexylidene)methyl) phenylalanine], the IC50 lay in the range of 100 to 1000 µM.

For the compound `CCOC(=O)[C@H](Cc1ccccc1)NC=C1C(=O)CC(c2ccccc2)CC1=O` (stereo partly drawn) [Compound 124, (l)-ethyl ((2,6-dioxo-4-phenylcyclo-hexylidene)methyl) phenylalaninate], the IC50 lay within 100 to 1000 µM.

For the compound `O=C1CC(c2ccccc2)CC(=O)C1=CN[C@@H](Cc1ccccc1)C(=O)OCc1ccccc1` (stereo partly drawn) [Compound 125, benzyl ((2,6-dioxo-4-phenylcyclo-hexylidene)methyl)-L-phenylalaninate], the IC50 lay within 100 to 1000 µM.

As for `O=C1CC(c2ccccc2)CC(=O)C1=CN[C@@H](Cc1c[nH]cn1)C(=O)O` (stereo partly drawn) [Compound 126, ((2,6-dioxo-4-phenylcyclo-hexylidene)methyl)-L-histidine], the IC50 fell in the range of 15 to 100 µM.

In the case of `COC(=O)C(CCSC)NC=C1C(=O)CC(c2ccccc2)CC1=O` (stereo not drawn) [Compound 127, methyl ((2,6-dioxo-4-phenylcyclo-hexylidene)methyl) methioninate], the IC50 was in the range of 15 to 100 µM.

Take `COCCNC=C1C(=O)CC(c2ccccc2)CC1=O` (stereo not drawn) [Compound 128, 2-(((2-methoxyethyl)amino)methylene)-5-phenylcyclohexane-1,3-dione]: the IC50 is 100 to 1000 µM.

Regarding `COC(=O)CNC=C1C(=O)CC(c2ccccc2)CC1=O` (stereo not drawn) [Compound 129, methyl ((2,6-dioxo-4-phenylcyclo-hexylidene)methyl)glycinate], the IC50 was 15 to 100 µM.

Consider `O=C(O)CCCNC=C1C(=O)CC(c2ccccc2)CC1=O` (stereo not drawn) [Compound 131, 4-(((2,6-dioxo-4-phenylcyclo-hexylidene)methyl)amino) butanoic acid], for which the IC50 lay in the range of 15 to 100 µM.

Take `O=C1CC(c2ccccc2)CC(=O)C1=CNCCCCO` (stereo not drawn) [Compound 132, 2-(((4-hydroxybutyl)amino)methylene)-5-phenylcyclohexane-1,3-dione]: the IC50 is 100 to 1000 µM.

As to `O=C1CC(c2ccccc2)CC(=O)C1=CNCCCCl` (stereo not drawn) [Compound 133, 2-(((3-chloropropyl)amino)methylene)-5-phenylcyclohexane-1,3-dione], the IC50 was in the range of 100 to 1000 µM.

Regarding `O=C1CC(c2ccccc2)CC(=O)C1=CNCCOCCO` (stereo not drawn) [Compound 134, 2-(((2-(2-hydroxyethoxy)ethyl)amino)methylene)-5-phenylcyclohexane-1,3-dione], the IC50 fell in the range of 100 to 1000 µM.

Regarding `O=C1CC(c2ccccc2)CC(=O)C1=CNCCc1c[nH]c2ccccc12` (stereo not drawn) [Compound 135, 2-(((2-(1H-indol-3-yl)ethyl)amino)methylene)-5-phenylcyclo-hexane-1,3-dione], the IC50 is 100 to 1000 µM.

In the case of `O=C1CC(c2ccccc2)CC(=O)C1=CNC1CCC(O)CC1` (stereo not drawn) [Compound 136, 2-(((4-hydroxycyclohexyl)amino)methylene)-5-phenylcyclohexane-1,3-dione], the IC50 fell in the range of 100 to 1000 µM.

Regarding `O=C1CC(c2ccccc2)CC(=O)C1=CNC1CCNCC1` (stereo not drawn) [Compound 140, 5-phenyl-2-((piperidin-4-ylamino)methylene) cyclohexane-1,3-dione hydrochloride], the IC50 fell in the range of 15 to 100 µM.

On to `O=C1CC(c2ccccc2)CC(=O)C1=CNC1CCCNC1` (stereo not drawn) [Compound 141, 5-phenyl-2-((piperidin-3-ylamino)methylene) cyclohexane-1,3-dione hydrochloride], for which the IC50 was 3 to 15 µM.
